Test results as given in patent US20220226337A1 (Gilead Sciences, Inc., priority 2018, published 2022).

Target: T1, α4β7 integrin interaction with MadCAM-1 (RPMI8866 cells) (Homo sapiens, UniProt P13612+P26010)
T1 construct: α4β7 integrin expressing cells; endogenous in cells; host or cells: RPMI8866 cells
T1 sequence (P13612 34-1032): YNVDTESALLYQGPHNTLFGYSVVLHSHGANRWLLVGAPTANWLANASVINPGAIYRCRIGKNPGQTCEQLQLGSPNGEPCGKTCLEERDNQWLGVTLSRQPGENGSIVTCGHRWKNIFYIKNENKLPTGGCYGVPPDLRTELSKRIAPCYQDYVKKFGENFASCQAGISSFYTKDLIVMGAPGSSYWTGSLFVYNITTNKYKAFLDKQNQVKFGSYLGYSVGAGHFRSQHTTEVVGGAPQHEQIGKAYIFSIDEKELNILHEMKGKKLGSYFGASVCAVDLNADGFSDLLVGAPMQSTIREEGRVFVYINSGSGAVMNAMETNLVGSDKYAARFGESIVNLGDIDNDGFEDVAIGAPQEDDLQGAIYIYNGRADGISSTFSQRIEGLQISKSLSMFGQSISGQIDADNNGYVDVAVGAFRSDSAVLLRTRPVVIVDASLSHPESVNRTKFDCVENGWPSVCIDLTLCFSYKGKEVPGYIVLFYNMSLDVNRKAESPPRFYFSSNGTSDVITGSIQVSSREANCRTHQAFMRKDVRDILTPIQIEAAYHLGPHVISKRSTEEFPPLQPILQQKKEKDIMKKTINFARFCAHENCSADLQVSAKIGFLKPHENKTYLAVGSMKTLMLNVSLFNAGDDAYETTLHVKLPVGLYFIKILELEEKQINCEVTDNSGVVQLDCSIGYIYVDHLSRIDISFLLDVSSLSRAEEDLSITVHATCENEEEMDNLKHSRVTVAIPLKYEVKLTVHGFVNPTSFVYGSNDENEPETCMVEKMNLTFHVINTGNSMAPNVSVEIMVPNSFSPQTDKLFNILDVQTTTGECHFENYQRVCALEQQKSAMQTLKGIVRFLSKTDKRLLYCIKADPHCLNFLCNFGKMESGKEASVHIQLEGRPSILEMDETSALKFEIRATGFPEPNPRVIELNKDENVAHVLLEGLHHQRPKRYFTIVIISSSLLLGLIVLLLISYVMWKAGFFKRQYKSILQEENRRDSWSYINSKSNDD
T1 sequence (P26010 20-798): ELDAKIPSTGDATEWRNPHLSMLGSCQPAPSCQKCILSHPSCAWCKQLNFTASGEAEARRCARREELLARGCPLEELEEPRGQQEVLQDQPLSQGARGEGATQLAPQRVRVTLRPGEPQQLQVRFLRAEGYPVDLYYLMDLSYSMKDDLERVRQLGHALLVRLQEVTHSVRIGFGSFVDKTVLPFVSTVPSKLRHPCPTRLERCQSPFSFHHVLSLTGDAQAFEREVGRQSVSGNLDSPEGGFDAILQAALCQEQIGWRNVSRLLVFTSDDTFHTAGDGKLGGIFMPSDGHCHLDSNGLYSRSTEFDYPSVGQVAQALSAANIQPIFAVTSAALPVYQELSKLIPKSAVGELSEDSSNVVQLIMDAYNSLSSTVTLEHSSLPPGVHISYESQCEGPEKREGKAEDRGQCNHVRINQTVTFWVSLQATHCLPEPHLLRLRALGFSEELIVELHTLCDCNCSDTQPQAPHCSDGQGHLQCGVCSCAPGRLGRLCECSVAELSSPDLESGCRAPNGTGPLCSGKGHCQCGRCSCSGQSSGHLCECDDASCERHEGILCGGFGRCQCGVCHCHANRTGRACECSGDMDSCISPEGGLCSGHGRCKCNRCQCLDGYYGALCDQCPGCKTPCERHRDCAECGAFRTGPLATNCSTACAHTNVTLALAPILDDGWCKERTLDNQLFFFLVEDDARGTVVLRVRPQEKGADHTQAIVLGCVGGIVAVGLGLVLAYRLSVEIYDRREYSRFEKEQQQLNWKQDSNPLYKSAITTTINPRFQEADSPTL
Experiment: α4β7 Integrin Cell Capture Assay
Format: cell-based
Settings: capture of α4β7 integrin expressing RPMI8866 cells on recombinant MadCAM-1 extracellular domain-coated plate; 0.5 mM MnCl2
Experimental: The potency of inhibitors in preventing α4β7 integrin interaction with MadCAM-1 was measured by monitoring the capture of α4β7 integrin expressing cells on a recombinant MadCAM-1 extracellular domain-coated plate. 384-well plates (Corning 3702) were coated with MadCAM-1 extracellular domain by dispensing 20 μL of MAdCAM-1 at 1.0 μg/mL per well and incubating overnight at 4° C. The plates were then washed with PBS and blocked with 3% BSA for 2 hours before being washed again. RPMI8866 cells were spun down and re-suspended in assay medium (DMEM+0.5% FBS+0.5 mM MnCl2) at a density of 0.5×10^6 cells/mL. The cells were then dispensed (60 μL/well) to a 384-well plate (Greiner 781280) that was previously spotted with 60 nL of test compound per well. The plates were incubated at 37° C. for 1 hour. 50 μL of cells were transferred to the blocked, MadCAM-1-coated plates and incubated for 30 minutes at 37° C. 10 μL of 12% glutaraldehyde containing Hoechst 33342 (0.06 mg/mL) was added to the cells (2% glutaraldehyde and 0.01 mg/mL final concentrations). The plates were incubated for 90 minutes at room temperature. The plates were then washed 3 times with 70 μL of PBS per well and imaged on a Cellomics ArrayScan instrument. The cells that were bound to the plate were counted and plotted against the compound concentration to determine the EC50 of the test compounds.

| EC50 [pM] | SMILES |
| --- | --- |
| 964 | CC[C@@H](Nc1cc(F)c(C(=O)N[C@@H](Cc2ccc(-c3c(C(F)(F)F)cc(C)n(C)c3=O)c3c2CCCO3)C(=O)O)c(F)c1)C(F)(F)F (single isomer, unassigned) [Example 45] |
| 26300 | O=C(N[C@@H](Cc1ccc(-c2c(Cl)cc(F)cc2Cl)c2c1OCCO2)C(=O)O)c1c(F)cccc1F [Example 4, (S)-3-(8-(2,6-dichloro-4-fluorophenyl)-2,3-dihydrobenzo[b][1,4]dioxin-5-yl)-2-(2,6-difluorobenzamido)propanoic acid] |
| 410 | Cc1cc(N2CCOC[C@@H]2C(F)(F)F)cc(F)c1C(=O)N[C@@H](Cc1ccc(-c2c(C)c(C(F)(F)F)cn(C)c2=O)c2c1COC2)C(=O)O [Example 187] |
| 27 | Cc1cc(N2CCOC[C@@H]2C(F)(F)F)cc(F)c1C(=O)N[C@@H](Cc1ccc(-n2c(=O)c3ccncc3n(C)c2=O)c2c1CCCO2)C(=O)O [Example 115, (S)-2-(2-fluoro-6-methyl-4-((R)-3-(trifluoromethyl)morpholino)benzamido)-3-(8-(1-methyl-2,4-dioxo-1,4-dihydropyrido[3,4-d]pyrimidin-3(2H)-yl)chroman-5-yl)propanoic acid] |
| 140 | Cc1nc(-c2ccc(C[C@H](NC(=O)c3c(F)cc(N4CCOC[C@@H]4C(F)(F)F)cc3Cl)C(=O)O)c3c2OCCC3)c(=O)n(C)c1C [Example 150] |
| 1780 | Cn1c(=O)c(-c2ccc(C[C@H](NC(=O)c3c(F)cc(N4CCOC[C@@H]4C(F)(F)F)cc3F)C(=O)O)c3c2OCCC3)cc2ccccc21 [Example 32, (S)-2-(2,6-difluoro-4-((R)-3-(trifluoromethyl)morpholino)benzamido)-3-(8-(1-methyl-2-oxo-1,2-dihydroquinolin-3-yl)chroman-5-yl)propanoic acid] |
| 190 | Cc1cc(N2CCOC[C@@H]2C(F)(F)F)cc(F)c1C(=O)N[C@@H](Cc1ccc(-c2nc(C)c(C)n(C)c2=O)c2c1CCC2)C(=O)O [Example 199] |
| 226 | Cc1cc(C)n(C)c(=O)c1-c1ccc(C[C@H](NC(=O)c2c(F)cc(N3CCOC[C@@H]3C(F)(F)F)cc2Cl)C(=O)O)c2c1OCCC2 [Example 159] |
| 1350 | CC[C@@H](Nc1cc(F)c(C(=O)N[C@@H](Cc2ccc(-c3c(C)cc(C)n(C)c3=O)c3c2COC3)C(=O)O)c(F)c1)C(F)(F)F [Example 22, (S)-2-(2,6-difluoro-4-(((R)-1,1,1-trifluorobutan-2-yl)amino)benzamido)-3-(7-(1,4,6-trimethyl-2-oxo-1,2-dihydropyridin-3-yl)-1,3-dihydroisobenzofuran-4-yl)propanoic acid] |
| 1040 | Cn1c(=O)c(-c2ccc(C[C@H](NC(=O)c3c(F)cc(N4CCOC[C@@H]4C(F)(F)F)cc3F)C(=O)O)c3c2COC3)cc2ccccc21 [Example 26, (S)-2-(2,6-difluoro-4-((R)-3-(trifluoromethyl)morpholino)benzamido)-3-(7-(1-methyl-2-oxo-1,2-dihydroquinolin-3-yl)-1,3-dihydroisobenzofuran-4-yl)propanoic acid] |
| 264 | Cc1nc(-c2ccc(C[C@H](NC(=O)c3c(F)cc(N4CCOC[C@@H]4C(F)(F)F)cc3F)C(=O)O)c3c2CCC3)c(=O)n(C)c1C [Example 193] |
| 89 | Cc1cc(N2CCOC[C@@H]2C(F)(F)F)cc(F)c1C(=O)N[C@@H](Cc1ccc(-c2c(Cl)cc(C)n(C)c2=O)c2c1CCCO2)C(=O)O (atropisomer, axis not shown) [Example 137] |
| 482 | CCc1nc(-c2ccc(C[C@H](NC(=O)c3c(F)cc(N4CCOC[C@@H]4C(F)(F)F)cc3F)C(=O)O)c3c2OCCC3)c(=O)n(C)c1CC [Example 164] |
| 1740 | Cc1cc(C)n(C)c(=O)c1-c1ccc(C[C@H](NC(=O)c2c(F)cc(N[C@H](C)C(F)(F)F)cc2F)C(=O)O)c2c1COC2 [Example 30, (S)-2-(2,6-difluoro-4-(((R)-1,1,1-trifluoropropan-2-yl)amino)benzamido)-3-(7-(1,4,6-trimethyl-2-oxo-1,2-dihydropyridin-3-yl)-1,3-dihydroisobenzofuran-4-yl)propanoic acid] |
| 42300 | O=C(N[C@@H](Cc1ccc(-c2c(Cl)cc(F)cc2Cl)c2c1OCCCO2)C(=O)O)c1c(F)cccc1F [Example 96, (S)-3-(9-(2,6-dichloro-4-fluorophenyl)-3,4-dihydro-2H-benzo[b][1,4]dioxepin-6-yl)-2-(2,6-difluorobenzamido)propanoic acid] |
| 1270 | Cc1nc(-c2ccc(C[C@H](NC(=O)c3c(F)cc(N4CCOC[C@@H]4C(F)(F)F)cc3F)C(=O)O)c3c2CN(C)C3)c(=O)n(C)c1C [Example 205] |
| 264 | Cc1cc(N2CCOC[C@@H]2C(F)(F)F)cc(F)c1C(=O)N[C@@H](Cc1ccc(-c2c(C)c(C(F)(F)F)cn(C)c2=O)c2c1CCC2)C(=O)O [Example 196] |
| 100000 | CC[C@@H](Nc1cc(F)c(C(=O)N[C@@H](Cc2ccc(-c3ncc(C)c(C)n3)c3c2COC3)C(=O)O)c(F)c1)C(F)(F)F [Example 24, (S)-2-(2,6-difluoro-4-(((R)-1,1,1-trifluorobutan-2-yl)amino)benzamido)-3-(7-(4,5-dimethylpyrimidin-2-yl)-1,3-dihydroisobenzofuran-4-yl)propanoic acid] |
| 961 | CC[C@@H](Nc1cc(F)c(C(=O)N[C@@H](Cc2ccc(-c3c(C)n(C)c(=O)n(C)c3=O)c3c2CCCO3)C(=O)O)c(F)c1)C(F)(F)F (single isomer, unassigned) [Example 56] |
| 341 | Cc1nc(C)n(C)c(=O)c1-c1ccc(C[C@H](NC(=O)c2c(F)cc(N3CCOC[C@@H]3C(F)(F)F)cc2F)C(=O)O)c2c1OCCC2 [Example 130] |
| 97800 | O=C(N[C@@H](Cc1ccc(-c2c(Cl)cc(F)cc2Cl)c2c1OCCC2)C(=O)O)c1c(F)cccc1F [Example 98, (S)-3-(5-(2,6-dichloro-4-fluorophenyl)chroman-8-yl)-2-(2,6-difluorobenzamido)propanoic acid] |
| 127000 | O=C(N[C@@H](Cc1ccc(-c2c(Cl)cc(F)cc2Cl)c2c1COC2)C(=O)O)c1c(Cl)cccc1Cl [Example 17, (S)-3-(7-(2,6-dichloro-4-fluorophenyl)-1,3-dihydroisobenzofuran-4-yl)-2-(2,6-dichlorobenzamido)propanoic acid] |
| 120000 | O=C(N[C@@H](Cc1ccc(-c2cccc3c2OCCC3)c2c1CCCO2)C(=O)O)c1c(F)cccc1F [Example 66, (S)-3-([8,8′-bichroman]-5-yl)-2-(2,6-difluorobenzamido)propanoic acid] |
